This assay concerns IL-1β production in PMA-differentiated THP-1 cells. As to the kind of experiment: IL-1β production in PMA-differentiated THP-1 cells stimulated with gramicidin (hTHP-1 assay containing 2% fetal bovine serum; Procedures 1-3). In kind it is cell-based, human. To be noted: Homo sapiens, THP-1, hTHP-1 assay containing 2% fetal bovine serum; class symbols; read-out: hTHP-1 IC50 (Average IC50 of compounds in hTHP-1 assay). Put shortly: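 THP-1 cells differentiated with PMA (20 ng/ml, 16-18 h), replated in 2% FBS RPMI (50,000 cells/well), preincubated 1 h with compound (top final 100 μM, 3-fold steps, 0.37% DMSO), then stimulated 2 h with gramicidin (5 μM). Supernatant IL-1β measured by HTRF.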
`CC(C)c1cc(COC2CCCC2)cc(C(C)C)c1CC(=O)N=S(N)(=O)c1cnc(C(C)(C)O)s1` (stereo not drawn) [Example 141, N-(amino(2-(2-hydroxypropan-2-yl)thiazol-5-yl)(oxo)-λ^6-sulfaneylidene)-2-(4-((cyclopentyloxy)methyl)-2,6-diisopropylphenyl)acetamide]: the IC50 (commonly the concentration that gives 50% inhibition) fell in the range of 40 to 200 nM.

Take `CC(C)c1cc2c(c(C(C)C)c1CC(=O)N=S(N)(=O)c1cnc(C(C)(C)O)s1)CCC2` (stereo not drawn) [Example 142, N-(amino(2-(2-hydroxypropan-2-yl)thiazol-5-yl)(oxo)-λ^6-sulfaneylidene)-2-(4,6-diisopropyl-2,3-dihydro-1H-inden-5-yl)acetamide]: the concentration for half-maximal inhibition (IC50) lay within 1000 to 5000 nM. As to `COc1cc(C(C)C)c(CC(=O)NS(=O)(=O)c2ncc(C(C)(C)O)s2)c(C(C)C)n1` [Example 143, 2-(2,4-diisopropyl-6-methoxypyridin-3-yl)-N-((5-(2-hydroxypropan-2-yl)thiazol-2-yl)sulfonyl)acetamide], the half-maximal inhibitory concentration (IC50) was in the range of 1000 to 5000 nM. As for `CC(C)c1ncc(F)c(C(C)C)c1CC(=O)N=S(N)(=O)c1ncc(C(C)(C)O)s1` (stereo not drawn) [Example 144, N-(amino(5-(2-hydroxypropan-2-yl)thiazol-2-yl)(oxo)-λ^6-sulfaneylidene)-2-(5-fluoro-2,4-diisopropylpyridin-3-yl)acetamide], the figure is 5000 to 30000 nM; as for `CC(C)c1ncc(F)c(C(C)C)c1CC(=O)N=S(N)(=O)c1cc(C(C)(C)O)cs1` (stereo not drawn) [Example 145, N-(amino(4-(2-hydroxypropan-2-yl)thiophen-2-yl)(oxo)-λ^6-sulfaneylidene)-2-(5-fluoro-2,4-diisopropylpyridin-3-yl)acetamide], 200 to 1000 nM; as for `CC(C)c1ncc(F)c(C(C)C)c1CC(=O)N=S(N)(=O)c1cnc(C(C)(C)O)s1` (stereo not drawn) [Example 146, N-(amino(2-(2-hydroxypropan-2-yl)thiazol-5-yl)(oxo)-λ^6-sulfaneylidene)-2-(5-fluoro-2,4-diisopropylpyridin-3-yl)acetamide], 5000 to 30000 nM. As for `CC(C)c1ncc(F)c(C(C)C)c1CC(=O)N=S(N)(=O)c1nc(C(C)(C)O)cs1` (stereo not drawn) [Example 147, N-(amino(4-(2-hydroxypropan-2-yl)thiazol-2-yl)(oxo)-λ^6-sulfaneylidene)-2-(5-fluoro-2,4-diisopropylpyridin-3-yl)acetamide], the figure is 1000 to 5000 nM; as for `CC(C)c1ncc(F)c(C(C)C)c1CC(=O)N=S(N)(=O)c1ccn(C(C)C)n1` (stereo not drawn) [Example 148, N-(amino(1-isopropyl-1H-pyrazol-3-yl)(oxo)-λ^6-sulfaneylidene)-2-(5-fluoro-2,4-diisopropylpyridin-3-yl)acetamide], 5000 to 30000 nM. On to `CC(C)c1ncc(F)c(C(C)C)c1CC(=O)N=S(N)(=O)c1sc(C(C)(C)O)cc1F` (stereo not drawn) [Example 149, N-(amino(3-fluoro-5-(2-hydroxypropan-2-yl)thiophen-2-yl)(oxo)-λ^6-sulfaneylidene)-2-(5-fluoro-2,4-diisopropylpyridin-3-yl)acetamide], for which the IC50 is 200 to 1000 nM. As for `Cc1ncc(C(C)C)c(CC(=O)N=S(N)(=O)c2sc(C(C)(C)O)cc2F)c1C(C)C` (stereo not drawn) [Example 150, N-(amino(3-fluoro-5-(2-hydroxypropan-2-yl)thiophen-2-yl)(oxo)-λ^6-sulfaneylidene)-2-(3,5-diisopropyl-2-methylpyridin-4-yl)acetamide], the figure is 5000 to 30000 nM; as for `CC(C)c1cc(C#N)nc(C(C)C)c1CC(=O)N=S(N)(=O)c1cc(C(C)(C)O)cs1` (stereo not drawn) [Example 151, N-(amino(4-(2-hydroxypropan-2-yl)thiophen-2-yl)(oxo)-λ^6-sulfaneylidene)-2-(6-cyano-2,4-diisopropylpyridin-3-yl)acetamide], 200 to 1000 nM; as for `COCc1cc(C(C)C)c(CC(=O)N=S(N)(=O)c2cc(C(C)(C)O)cs2)c(C(C)C)n1` (stereo not drawn) [Example 152, N-(amino(4-(2-hydroxypropan-2-yl)thiophen-2-yl)(oxo)-λ^6-sulfaneylidene)-2-(2,4-diisopropyl-6-(methoxymethyl)pyridin-3-yl)acetamide], 200 to 1000 nM.

Regarding `CC(C)c1nc(C(F)(F)F)nc(C(C)C)c1CC(=O)N=S(N)(=O)c1cnc(C(C)(C)O)s1` (stereo not drawn) [Example 153, N-(amino(2-(2-hydroxypropan-2-yl)thiazol-5-yl)(oxo)-λ^6-sulfaneylidene)-2-(4,6-diisopropyl-2-(trifluoromethyl)pyrimidin-5-yl)acetamide], the IC50 lay within 1000 to 5000 nM. The result for `CC(C)c1cnc(F)c(C(C)C)c1CC(=O)N=S(N)(=O)c1cnc(C(C)(C)O)s1` (stereo not drawn) [Example 154, N-(amino(2-(2-hydroxypropan-2-yl)thiazol-5-yl)(oxo)-λ^6-sulfaneylidene)-2-(2-fluoro-3,5-diisopropylpyridin-4-yl)acetamide] reads 5000 to 30000 nM; that for `CC(C)c1cc2c(c(C(C)C)c1CC(=O)N=S(N)(=O)c1cc(C(C)(C)O)cs1)COC2` (stereo not drawn) [Example 220, N-(amino(4-(2-hydroxypropan-2-yl)thiophen-2-yl)(oxo)-λ^6-sulfaneylidene)-2-(4,6-diisopropyl-1,3-dihydroisobenzofuran-5-yl)acetamide], 40 to 200 nM; that for `CC(C)c1cc2c(c(C(C)C)c1CC(=O)N=S(N)(=O)c1ccn(C(C)C)n1)COC2` (stereo not drawn) [Example 221, N-(amino(1-isopropyl-1H-pyrazol-3-yl)(oxo)-λ^6-sulfaneylidene)-2-(4,6-diisopropyl-1,3-dihydroisobenzofuran-5-yl)acetamide], 5000 to 30000 nM. As for `CC(C)c1cc(C#N)c(F)c(C(C)C)c1CC(=O)N=S(N)(=O)c1ncc(C(C)(C)O)s1` (stereo not drawn) [compound 13, 2-(4-cyano-3-fluoro-2,6-diisopropylphenyl)-N-(5-(2-hydroxypropan-2-yl)thiazol-2-ylsulfonimidoyl)acetamide], the figure is 200 to 1000 nM; as for `COc1ccc(CNS(=O)(=NC(=O)Cc2c(C(C)C)cc(F)cc2C(C)C)c2ncc(C(C)(C)O)s2)cc1` (stereo not drawn) [compound 41, 2-(4-fluoro-2,6-diisopropylphenyl)-N-(5-(2-hydroxypropan-2-yl)-N-(4-methoxybenzyl)thiazole-2-sulfonimidoyl)acetamide], 5000 to 30000 nM.

Source of the values: US11370763B2, “Compounds and compositions for treating conditions associated with NLRP activity” (Novartis AG, priority 2017, dated 2022).
